Experimental data from patent US8975235B2, “Lysophosphatidic acid receptor antagonists” (InterMune, Inc., priority 2011, dated 2015).

How the values were obtained:
[1] = molecular target: T1, Human LPA1 (Homo sapiens, UniProt Q92633); experiment: Beta-Arrestin based assay for human LPA1R antagonists (PathHunter); type: cell-based; design: host or cells: CHO; conditions: CHO cells stably expressing ProLink tagged human LPA1R; agonist LPA 0.5 micromolar
Method in brief: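 CHO cells stably expressing ProLink-tagged human LPA1R with β-arrestin–EA fusion, assayed by β-galactosidase complementation. Antagonists tested against 0.5 micromolar LPA ([…]), in quadruplicate. End-point luminescence fitted to a 4-parameter logistic to give IC50.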

[2] = molecular target: T1, Human LPA1; experiment: LPA1 calcium flux assay; type: cell-based; design: the full-length cDNA for human LPA1 is obtained by PCR of the reverse transcription reaction; expressed in transfected cells; host or cells: CHO; conditions: human LPA1 expressing CHO cells; stimulated with 10 nM LPA; read-out: Ca Flux LPA1 IC50
Protocol: Establishment of a CHO Cell Line Stably Expressing Human LPA1
A 1.1 kb cDNA encoding the human LPA1 receptor is cloned from human lung. Human lung RNA (Clontech Laboratories, Inc. USA) is reverse transcribed using the RETROscript kit (Ambion, Inc.) and the full-length cDNA for human LPA1 is obtained by PCR of the reverse transcription reaction. The nucleotide sequence of the cloned human LPA1 is determined by sequencing and is confirmed to be identical to the published human LPA1 sequence (An et al. Biochem. Biophys. Res. Commun. 231:619 (1997). The cDNA is cloned into the pcDNA5 pcDNA5/FRT expression plasmid and is transfected in CHO cells using lipofectamine 2000 (Invitrogen Corp., USA). Clones stably expressing human LPA1 are selected using hygromycin and identified as cells that show Ca-influx in response to LPA.
LPA1 and LPA3 Calcium Flux Assays
Human LPA1 or LPA3 expressing CHO cells were seeded at 20,000-45,000 cells per well in a 96-well poly-D-lysine coated plate one or two days before the assay. Prior to the assay, the cells were washed once with PBS and then cultured in serum-free media overnight. On the day of the assay, a calcium indicator dye (Calcium 4, Molecular Devices) in assay buffer (HBSS with Ca^2+ and Mg^2+ and containing 20 mM Hepes and 0.3% fatty-acid free human serum albumin) was added to each well and incubation continued for 1 hour at 37° C. 10 μl of test compounds in 2.5% DMSO were added to the cells and incubation continued at room temperature for 30 minutes. Cells were then stimulated by the addition of 10 nM LPA and intracellular Ca^2+ measured using the Flexstation 3 (Molecular Devices). IC50s were determined using Graphpad prism analysis of drug titration curves.

T1 sequence (Q92633 whole entry, the tested form may be a part): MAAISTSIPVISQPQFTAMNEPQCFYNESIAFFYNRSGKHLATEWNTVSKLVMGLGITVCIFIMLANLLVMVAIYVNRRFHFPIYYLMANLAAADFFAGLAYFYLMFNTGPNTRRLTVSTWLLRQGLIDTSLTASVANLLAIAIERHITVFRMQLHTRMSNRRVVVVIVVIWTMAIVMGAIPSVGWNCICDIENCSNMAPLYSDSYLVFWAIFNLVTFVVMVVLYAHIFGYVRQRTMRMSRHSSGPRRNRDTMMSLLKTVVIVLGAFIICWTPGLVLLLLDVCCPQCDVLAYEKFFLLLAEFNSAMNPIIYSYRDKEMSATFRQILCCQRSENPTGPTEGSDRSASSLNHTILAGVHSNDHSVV

Compound | EC50 [1] [nM] | IC50 [2] [nM]
C[C@@H](OC(=O)Nc1c(-c2ccc(-c3ccc(C4(C(=O)O)CC4)cc3)cc2)oc2cc(F)ccc12)c1ccccc1Cl [Compound 61] | < 50 | > 500
Cc1nsc(-c2ccc(-c3ccc(C(C(=O)O)c4ccccc4)cc3)cc2)c1NC(=O)O[C@H](C)c1ccccc1Cl (single isomer, unassigned) [Compound 70] | < 50 | > 500
C[C@@H](OC(=O)Nc1c(-c2cc(F)c(-c3ccc(C4(C(=O)O)CC4)cc3)cc2F)cnn1C)c1ccccc1 [Compound 200] | < 50 | 50 to 500
Cc1nsc(-c2ccc(-c3ccc(C4(C(=O)O)CC4)cc3)cc2)c1NC(=O)OCc1ccccc1 [Compound 45] | < 50 | < 50
Cc1nsc(-c2cc(Cl)c(-c3ccc(C4(C(=O)O)CC4)cc3)cc2F)c1NC(=O)O[C@H](C)c1ccccc1 [Compound 179] | < 50 | 50 to 500
Cc1snc(-c2ccc(-c3ccc(C4(C(=O)O)CC4)cc3)cc2)c1NC(=O)O[C@H](C)c1ccccc1 [Compound 105] | < 50 | < 50
Cc1nsc(C#Cc2ccc(C3(C(=O)O)CC3)cc2)c1NC(=O)O[C@H](C)c1ccccc1Cl [Compound 81] | < 50 | < 50
Cc1nsc(-c2ccc(-c3ccc(C4(C(=O)O)CC4)cc3)cc2)c1NC(=O)O[C@H](C)c1ccccc1 [Compound 44] | < 50 | < 50
Cc1noc(-c2ccc(-c3ccc(C4(C(=O)O)COC4)cc3)cc2)c1NC(=O)O[C@H](C)c1ccccc1 [Compound 80] | < 50 | 50 to 500
Cc1nsc(-c2ccc(-c3ccc(C(C(=O)O)c4ccccc4)cc3)cc2)c1NC(=O)O[C@H](C)c1ccccc1Cl (single isomer, unassigned) [Compound 71] | 50 to 500 | > 500
Cc1noc(-c2ccc(-c3ccc(C4CCOCC4C(=O)O)cc3)cc2)c1NC(=O)O[C@H](C)c1ccccc1Cl (some centres unmarked) [Compound 79] | < 50 | 50 to 500
Cc1nsc(-c2cc(F)c(-c3ccc(C4(C(=O)O)CC4)cc3)cc2F)c1NC(=O)O[C@H](C)c1ccccc1 [Compound 182] | < 50 | < 50
Cc1noc(-c2ccc3c(c2)CCc2cc(CC(=O)O)ccc2-3)c1NC(=O)O[C@H](C)c1ccccc1Cl [Compound 78] | 50 to 500 | 50 to 500
Cc1nsc(-c2ccc(-c3ccc(C4(C(=O)O)CC4)cc3)cc2)c1NC(=O)OCc1ccccc1Cl [Compound 46] | 50 to 500 | 50 to 500
Cc1nsc(-c2ccc(-c3ccc(C4(C(=O)O)COC4)cc3)cc2)c1NC(=O)O[C@H](C)c1ccccc1 [Compound 241] | 50 to 500 | 50 to 500
Cc1nsc(-c2ccc(-c3ccc(C4(C(=O)O)CC4)cc3)cc2)c1NC(=O)O[C@H](C)c1ccccc1F [Compound 83] | < 50 | 50 to 500
C[C@@H](OC(=O)Nc1scnc1-c1ccc(-c2ccc(C3(C(=O)O)CC3)cc2)cc1)c1ccccc1Cl [Compound 107] | < 50 | < 50
C[C@@H](OC(=O)Nc1c(-c2cc(Cl)c(-c3ccc(C4(C(=O)O)CC4)cc3)cc2F)cnn1C)c1ccccc1 [Compound 201] | < 50 | < 50
Cc1nsc(C#Cc2ccc(C3(C(=O)O)CC3)cc2)c1NC(=O)O[C@H](C)c1ccccc1 [Compound 82] | 50 to 500 | > 500
C[C@@H](OC(=O)Nc1ccn(-c2ccc(-c3ccc(C4(C(=O)O)CC4)cc3)cc2)n1)c1ccccc1Cl [Compound 68] | > 500 | > 500
C[C@@H](OC(=O)Nc1ocnc1-c1ccc(-c2ccc(C3(C(=O)O)CC3)cc2)cc1)c1ccccc1Cl [Compound 147] | < 50 | 50 to 500
Cc1nnn(-c2ccc(-c3ccc(C4(C(=O)O)CC4)cc3)cc2)c1NC(=O)O[C@H](C)c1ccccc1Cl [Compound 64] | < 50 | 50 to 500
C[C@@H](OC(=O)Nc1c(-c2ccc(-c3ccc(C4(C(=O)O)CC4)cc3)cc2)oc2ccc(F)cc12)c1ccccc1Cl [Compound 60] | 50 to 500 | > 500
Cc1noc(-c2ccc(-c3ccc(CC(=O)O)cc3)cc2)c1NS(=O)(=O)c1ccccc1 [Compound 19] | > 500 | > 500
Cc1noc(-c2ccc3cc(C#CC4(C(=O)O)CC4)ccc3c2)c1NC(=O)O[C@H](C)c1ccccc1 [Compound 140] | < 50 | < 50
Cc1onc(-c2ccc(-c3ccc(C4(C(=O)O)CC4)cc3)cc2)c1NC(=O)O[C@H](C)c1ccccc1Cl [Compound 30] | < 50 | < 50

Compound | EC50 [1] [nM] | IC50 [2] [nM]
Cc1snc(-c2ccc(-c3ccc(C4(C(=O)O)CC4)cc3)cc2)c1NC(=O)O[C@H](C)c1ccccc1Cl [Compound 56] | < 50 | 50 to 500
Cc1noc(-c2ccc(-c3ccc(C4(C(=O)O)CCOCC4)cc3)cc2)c1NC(=O)O[C@H](C)c1ccccc1 [Compound 242] | < 50 | 50 to 500
Cc1ccccc1[C@@H](C)OC(=O)Nc1c(C)nsc1-c1ccc(-c2ccc(C3(C(=O)O)CC3)cc2)cc1 [Compound 86] | < 50 | 50 to 500
Cc1nsc(-c2ccc(-c3ccc(CC(=O)O)cc3F)cc2)c1NC(=O)O[C@H](C)c1ccccc1Cl [Compound 195] | 50 to 500 | 
Cc1nsc(C#Cc2ccc3cc(C4(C(=O)O)CC4)ccc3c2)c1NC(=O)O[C@H](C)c1ccccc1 [Compound 92] | < 50 | 
Cc1nsc(-c2ccc(-c3ccc(C4(C(=O)O)CC4)c(Cl)c3)cc2)c1NC(=O)O[C@H](C)c1ccccc1Cl [Compound 191] | < 50 | 
Cc1nsc(-c2ccc(-c3ccc(C4(C(=O)O)CC4)cc3)cc2)c1NC(=O)OCc1cccc(F)c1 [Compound 96] | < 50 | 
Cc1nc(-c2ccc(-c3ccc(C4(C(=O)O)CC4)cc3)cc2)c(NC(=O)O[C@H](C)c2ccccc2)o1 [Compound 154] | 50 to 500 | 
Cc1cc(CC(=O)O)ccc1-c1ccc(-c2snc(C)c2NC(=O)O[C@H](C)c2ccccc2Cl)cc1 [Compound 193] | 50 to 500 | 
Cc1noc(-c2ccc(Nc3ccccc3C(=O)O)cc2)c1NC(=O)O[C@H](C)c1ccccc1Cl [Compound 22] | > 500 | 
Cc1ccc2oc(-c3ccc(-c4ccc(C5(C(=O)O)CC5)cc4)cc3)c(NC(=O)O[C@H](C)c3ccccc3Cl)c2c1 [Compound 53] | > 500 | 
C[C@@H](OC(=O)Nc1cncn1-c1ccc(-c2ccc(C3(C(=O)O)CC3)cc2)cc1)c1ccccc1 [Compound 165] | 50 to 500 | 
Cc1noc(-c2ccc(-c3ccc(C4(C(=O)O)CNC4)cc3)cc2)c1NC(=O)O[C@H](C)c1ccccc1Cl [Compound 34] | > 500 | 
Cc1noc2cc(-c3ccc(CC(=O)O)cc3)cc(NC(=O)O[C@H](C)c3ccccc3Cl)c12 [Compound 77] | > 500 | 
Cc1noc(C#Cc2ccc3cc(CC(=O)O)ccc3c2)c1NC(=O)O[C@H](C)c1ccccc1Cl [Compound 129] | 50 to 500 | 
C[C@@H](OC(=O)Nc1c(Cl)nsc1-c1ccc(-c2ccc(C3(C(=O)O)CC3)cc2)cc1)c1ccccc1 [Compound 112] | < 50 | 
Cc1nsc(-c2ccc(-c3ccc(C4(C(=O)O)CC4)cc3)cc2)c1NC(=O)OCc1ccccn1 [Compound 72] | > 500 | 
O=C(Nc1ncoc1-c1ccc(-c2ccc(C3(C(=O)O)CC3)cc2)cc1)OCc1ccccc1 [Compound 145] | 50 to 500 | 
O=C(O)Cc1ccc(N2CCN(C(=O)CNC(=O)OCc3ccccc3)CC2)cc1 [Compound 269] | > 500 | 
Cc1nsc(-c2ccc(-c3ccc(C4(C(=O)O)CC4)cc3)cc2)c1NC(=O)OC1(c2ccccc2)CC1 [Compound 244] | > 500 | 
O=C(O)Cc1ccc(N2CCN(C(=O)[C@H](NC(=O)OCc3ccccc3)c3ccccc3)CC2)cc1 [Compound 272] | > 500 | 
Cc1nsc(-c2ccc(-c3ccc(C4(C(=O)O)CC4)cc3)c3c2CCC3)c1NC(=O)O[C@H](C)c1ccccc1 [Compound 239] | > 500 | 
Cc1cc(-c2ccc(C3(C(=O)O)CC3)cc2)c(F)cc1-c1snc(C)c1NC(=O)O[C@H](C)c1ccccc1Cl [Compound 124] | < 50 | 
Cc1nsc(-c2ccc(-c3ccc(C4(C(=O)O)CC4)cc3)cc2)c1NC(=O)O[C@@H](C)C1=C(Cl)CCCC1 [Compound 219] | 50 to 500 | 
Cc1ccc2c(NC(=O)O[C@H](C)c3ccccc3)c(-c3ccc(-c4ccc(C5(C(=O)O)CC5)cc4)cc3)sc2n1 [Compound 214] | > 500 | 
